# Test results reported in patent publication US20020192754A1 (MAX-PLANCK-GESELLSCHAFT E.V., priority 1999, published 2002).
# Where two headings read alike, the source gives them in different places. Where a SMILES comes first, the peptide text is derived from it. [ ]: non-standard residue; d: D form. The star is where a group is joined. Sta = CC(C)C[C@H](N)[C@@H](O)CC(=O)O; Isovaleryl = CC(C)CC(=O)*; CH2Cl = ClC*
# Legend:
# human GzmK [1] = target: T1, human GzmK (Homo sapiens, UniProt P49863); test: Inhibition of human GzmK by various inhibitors (residual activity, this study); type: biochemical
# T1 construct: Met-Glu N-terminal helper dipeptide (pro-dipeptide) (N, cleaved yes); made in house
# T1 sequence (P49863 27-264): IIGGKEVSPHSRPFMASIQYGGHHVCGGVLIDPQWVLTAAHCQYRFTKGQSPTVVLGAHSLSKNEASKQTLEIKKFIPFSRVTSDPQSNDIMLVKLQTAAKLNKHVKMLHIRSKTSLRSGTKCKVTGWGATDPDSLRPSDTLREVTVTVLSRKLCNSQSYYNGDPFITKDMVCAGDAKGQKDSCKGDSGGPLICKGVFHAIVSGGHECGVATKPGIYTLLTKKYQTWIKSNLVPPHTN
# Experimental: These activity tests were performed in wells of a 96-cup tray with respectively 150 μl of the sample volume.
# The thiobenzylester substrates and Ellman's reagency were diluted to end concentrations of 0.3 mM in the test buffer (150 mM Tris, 50 mM NaCl, 0.01% Triton X-100, pH 7.6). The various granzyme preparations were likewise diluted to 3-15 nM in the test buffer. The color change occurring with the conversion of the substrates was measured at 405 nm and room temperature over 5 minutes in the ELISA reader. The difference in absorptions at the beginning and after 5 minutes as it relates to time was used to calculate the conversion rate.
# After a 60-minute preincubation at RT the residual activity was ascertained in triple batches. Initial activities were determined in buffers containing the same proportion of organic solvents. […] Molar concentrations of active aprotinine were ascertained with the use of activity-titrated bovine trypsin.
# human GzmK [2] = target: T1, human GzmK; details: cited from earlier work
# [3] = inhibitor 0.1 mM, I:E 33 x 10^3, 3 nM human GzmK, 60-minute preincubation at RT
compound,measurement,setting,value
N=C(N)c1ccccc1 [Benzamidine],remaining activity at 27000 µM,"human GzmK [1]; inhibitor 27.0 mM, I:E 9000 x 10^3, 3 nM human GzmK, 60-minute preincubation at RT",43.1%
same,"Residual Activity (%) Babé et al., Bio. Appl. Bioch. 27:117-124 (1998)",human GzmK [2]; table row: inhibitor 27.0 mM,50%
O=C(O)CN(CCN(CC(=O)O)CC(=O)O)CC(=O)O [EDTA],Residual Activity (%) This study,human GzmK [1],106.4%
same,"Residual Activity (%) Babé et al., Bio. Appl. Bioch. 27:117-124 (1998)",human GzmK [2],100%
NC(N)=NCCC[C@H](NC(=O)CNC(=O)[C@@H](N)CCC(=O)O)C(=O)CCl [EGR-CMK] (H-Glu-Gly-Arg-CH2Cl),Residual Activity (%) This study,human GzmK [1]; [3],54.8%
NC(N)=NCCC[C@H](NC(=O)[C@@H]1CCCN1C(=O)[C@H](N)Cc1ccccc1)C(=O)CCl [FPR-CMK],Residual Activity (%) This study,human GzmK [1]; [3],0.0%
CC(=O)N[C@@H](CC(C)C)C(=O)N[C@@H](CC(C)C)C(=O)N[C@H](C=O)CCCNC(=N)N [Leupeptin],remaining activity at 200 µM,"human GzmK [1]; inhibitor 0.2 mM, I:E 67 x 10^3, 3 nM human GzmK, 60-minute preincubation at RT",78%
same,"Residual Activity (%) Babé et al., Bio. Appl. Bioch. 27:117-124 (1998)",human GzmK [2]; table row: inhibitor 0.2 mM,50%
Cl.NCCc1ccc(S(=O)(=O)F)cc1 [PefablocSC],Residual Activity (%) This study,"human GzmK [1]; inhibitor 0.5 mM, I:E 170 x 10^3, 3 nM human GzmK, 60-minute preincubation at RT",26.0%
same,Residual Activity (%) This study,"human GzmK [1]; inhibitor 1.0 mM, I:E 330 x 10^3, 3 nM human GzmK, 60-minute preincubation at RT",5.7%
CC(C)CC(=O)N[C@H](C(=O)N[C@H](C(=O)N[C@@H](CC(C)C)[C@@H](O)CC(=O)N[C@@H](C)C(=O)N[C@@H](CC(C)C)[C@@H](O)CC(=O)O)C(C)C)C(C)C [Pepstatin A] (Isovaleryl-VV[Sta]A[Sta]-OH),Residual Activity (%) This study,"human GzmK [1]; inhibitor 0.001 mM, I:E 0.3 x 10^3, 3 nM human GzmK, 60-minute preincubation at RT",93.0%
same,"Residual Activity (%) Babé et al., Bio. Appl. Bioch. 27:117-124 (1998)",human GzmK [2]; table row: inhibitor 0.001 mM,100%
Aprotinine,Residual Activity (%) This study,"human GzmK [1]; inhibitor 0.015 mM, I:E 5 x 10^3, 3 nM human GzmK, 60-minute preincubation at RT",8.6%
same,"Residual Activity (%) Babé et al., Bio. Appl. Bioch. 27:117-124 (1998)",human GzmK [2]; table row: inhibitor 0.015 mM,0%
N-tosyllysine chloromethylketone [TLCK],Residual Activity (%) This study,human GzmK [1]; [3],91.0%
same,"Residual Activity (%) Babé et al., Bio. Appl. Bioch. 27:117-124 (1998)",human GzmK [2]; table row: inhibitor 0.1 mM,0%
N-tosylphenylalanine chloromethylketone [TPCK],Residual Activity (%) This study,"human GzmK [1]; inhibitor 0.05 mM, I:E 17 x 10^3, 3 nM human GzmK, 60-minute preincubation at RT",96.0%
same,"Residual Activity (%) Babé et al., Bio. Appl. Bioch. 27:117-124 (1998)",human GzmK [2]; table row: inhibitor 0.05 mM,95%
